# In patent publication US20110257148A1, “NOVEL 1-ALKYL-3-HYDROXY-3-PHENYLAZETIDINE DERIVATIVES USEFUL AS MODULATORS OF CORTICAL CATECHOLAMINERGIC NEUROTRANSMISSION” (NSAB, FILIAL AF N[…] AB, SVERIGE, priority 2008, published 2011):
# Where a name gives a salt, the structure may show the parent alone.
row,melting point [°C],Structure (SMILES)
1,185 to 186,CC(C)N1CC(O)(c2cc(F)cc(F)c2)C1 (as salt: fumaric acid salt)
2,167 to 168,"CCCN1CC(O)(c2cccc(Cl)c2F)C1 (as salt: fumaric acid salt) [Example 6, 3-(3-Chloro-2-Fluorophenyl)-1-Propylazetidin-3-Ol]"
3,157 to 159,CCCN1CC(O)(c2ccc(F)c(F)c2)C1 (as salt: fumaric acid salt)
4,162 to 164,CCCN1CC(O)(c2cc(F)cc(F)c2)C1 (as salt: fumaric acid salt)
5,161 to 165,"CCCN1CC(O)(c2cccc(F)c2F)C1 (as salt: fumaric acid salt) [Example 1, 3-(2,3-DIFLUOROPHENYL)-1-PROPYLAZETIDIN-3-OL]"
6,147 to 149,CCCN1CC(O)(c2cc(F)cc(Cl)c2)C1 (as salt: fumaric acid salt)
